From patent US20260265244A1, “HETEROCYCLIC COMPOUNDS AS STING ANTAGONISTS” (Boehringer Ingelheim International GmbH, priority 2022, published 2026)
pIC50: −log10 of the molar value.

Key:
human STING WT (R232) = biological target: T1, human STING WT (R232) (Homo sapiens, UniProt Q86WV6, H232R); test: Human STING HTRF binding assay (competitive, Cisbio 64BDSTGPEG)
T1 construct: purchased Cisbio 64BDSTGPEG
Description: Binders to human STING WT (R232) were identified using a competitive HTRF assay format (Cisbio 64BDSTGPEG), which uses d2-labeled STING ligand, a 6His (SEQ ID NO: 2) tagged human STING protein, and an anti 6His (SEQ ID NO: 2) Cryptate-labeled antibody. Compounds compete with the STING ligand-d2 and thereby prevents FRET from occurring, which can be measured by an EnVision™ reader (PerkinElmer).
Assay method: Compounds were delivered as 10 mM DMSO solution, serially diluted by an Agilent Bravo Workstation and transferred to the 384 well assay plate (Perkin Elmer #6005359) using a Cybiwell dispenser. Typically, 8 concentrations were used with the highest concentration at 10 μM or 1 μM in the final assay volume followed by ~1:5 dilution steps. DMSO concentration was set to 1% in the final assay volume. The 384 well assay plate contained 20 test compounds and DMSO in column 23 and 24. A cGAMP standard dilution row was prepared according to the manufacturer and transferred to each assay plate. After transfer of compound solution or dilution buffer for negative (high) and positive (low) controls, 5 μl of the human STING protein (cyclic binding domain (residues 138-379) of the WT R232 human version, fused to a 6 His tag (SEQ ID NO: 2) at the Nter part; 1:50 dilution in detection buffer) were dispensed to all wells except of the positive control, which received detection buffer only. Plates were the centrifuged for 20 sec at 1000 rpm. After that, 10 μl of Anti-6His-Cryptate antibody/Sting ligand-d2 mix was added to all wells using a Multidrop combi dispenser, followed by another sec/1000 rpm centrifugation step. After an incubation of the plates for 180 min at room temperature, […] at […] (HTRF ratio) was measured using an Envison Reader (PerkinElmer).
Data evaluation and calculation: For data evaluation and calculation, HTRF ratios were calibrated using the cGAMP standard curve. After that, the measurement of the low control was set as 0% control and the measurement of the high control was set as 100% control. The IC50 values were calculated using the standard 4 parameter logistic regression formula. Calculation: [y=(a−d)/(1+(x/c)^b)+d], a=low value, d=high value; x=conc M; c=IC50 M; b=slope;

[1] = biological target: T2, cGAMP binding domain of wild-type (GRR) human STING, residues 155-341 (Homo sapiens, UniProt Q86WV6, H232R); test: Increase of stability of STING protein against thermal denaturation, Differential Scanning Fluorimetry (DSF)
T2 construct: His-TEV-hSTING (WT); TEV protease cleavage site (N); made in house; host or cells: E. coli BL21 DE3
T2 sequence (Q86WV6 with tags, fused parts or gaps H232R): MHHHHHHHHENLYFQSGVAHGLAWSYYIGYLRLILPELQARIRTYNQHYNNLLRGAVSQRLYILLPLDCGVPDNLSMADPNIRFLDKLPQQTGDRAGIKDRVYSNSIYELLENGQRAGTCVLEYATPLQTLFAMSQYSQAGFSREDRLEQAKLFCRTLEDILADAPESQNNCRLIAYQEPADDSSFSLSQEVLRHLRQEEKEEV
Description: Dye fluorescence is quenched in aqueous environment and increases upon association of the dye with the hydrophobic parts of the unfolding protein. […] The inflection point of the curve represents the “melting” temperature of the protein (Tm) which is calculated numerically using the Boltzmann equation.
Method: The thermal stability of the STING protein was measured using a specific expression construct of the cGAMP binding domain of wild-type (GRR) human STING comprising residues 155-341 and a N-terminal 8×His-tag (SEQ ID NO: 3) in assay buffer containing 20 mM Tris, 150 mM NaCl at pH7.5.
The assay uses Hard-Shell® PCR Plates 384-Well CLR/WHT (Catalog #HSP3805, BIO-RAD), Microseal® ‘B’ Adhesive Seals for PCR Plates (Catalog #MSB-1001, BIO-RAD) and was run on a CFX384 Real-Time System (Bio-Rad).
A DMSO stock solution of SYPRO orange (SIGMA S5692-500UL) was prepared.
Compound stock solutions (10 mM in DMSO) were diluted 1:2 in DMSO to an intermediate compound concentration of 5 mM and then further diluted 1:40 in assay buffer resulting in a compound concentration of 125 μM and 2.5% DMSO.
Fluorescent dye stock solution (5000×SYPRO Orange) was then mixed with target protein and buffer to a concentration of 15 uM Protein and 25×SYPRO Orange. 2 ul of this protein-dye-mixture was added to 8 ul compound solution. Final volume was 10 uL. 3-6 well positions were used as negative control (protein with 2% DMSO). The plates were prepared for duplicate measurement and centrifuged for 2 min at 1000 g. In the measurement, 160 cycles of 0.5° C. were used (temperature ramp 15 s/cycle, 15° C. to 95° C.).
Final Assay concentrations for compound characterization were as follows: 100 uM compound, 3 uM target protein, 5×SYPRO Orange, 2% DMSO in 10 ul. All dispensing steps were performed using a HamiltonStar pipetting robot (Hamilton).
Dissociation curves were processed in Bio-Rad CFX Manager. Peak type was set to “negative”. Compound codes for screen were assigned in the plate layout.
Two replicates of TM measurements were averaged, and the standard deviation was calculated. In cases of SD>1.5° C. the measurement was repeated.
The melting point (Tm) obtained for STING protein alone was subtracted from T obtained for protein incubated with ligand to generate ΔTm values.
Protein production and purification: The protein used for the biophysical experiments was a recombinant human STING protein comprising its cytosolic ectodomain. A codon optimized DNA sequence (for expression in Escherichia coli) encoding amino acid residues 155 to 341 (Swiss Prot Q86WV6) of human STING (WT) was synthesized by GeneArt (Regensburg, Germany) and inserted into a pET17b E. coli expression vector. The protein construct encodes an N-terminal 8×His-tag (SEQ ID NO: 3) followed by tobacco etch virus protease (TEV) cleavage site and the above STING gene sequence. The resulting protein sequence for the used STING variant is listed below:
For expression of recombinant human STING above construct was transformed into E. coli BL21 DE3 strain and grown in shake flasks in LB-medium at 37° C. Expression was induced by addition of isopropyl β-D-1-thiogalactopyranoside to a final concentration of 1 mM and cultures shaken overnight. Cell pellets were centrifuged and stored at −70° C. until further use. Protein was purified by cell thawing in lysis buffer (20 mM TRIS-HCl, pH 8, 300 mM NaCl, 2 mM mercaptoethanol, 20 mM imidazole, Complete Protease Inhibitor (Roche) and DNase (Roche)), followed by metal affinity purification using Ni-NTA resins and elution buffer consisting of 20 mM TRIS-HCl, pH 8, 300 mM NaCl, 2 mM mercaptoethanol, 300 mM imidazole and size exclusion chromatography in running buffer (20 mM TRIS-HCl, pH 8, 100 mM NaCl, 2 mM DTT). The peak fraction was collected and concentrated to 2.5 mg/mL.

T1 sequence (Q86WV6 138-379 H232R): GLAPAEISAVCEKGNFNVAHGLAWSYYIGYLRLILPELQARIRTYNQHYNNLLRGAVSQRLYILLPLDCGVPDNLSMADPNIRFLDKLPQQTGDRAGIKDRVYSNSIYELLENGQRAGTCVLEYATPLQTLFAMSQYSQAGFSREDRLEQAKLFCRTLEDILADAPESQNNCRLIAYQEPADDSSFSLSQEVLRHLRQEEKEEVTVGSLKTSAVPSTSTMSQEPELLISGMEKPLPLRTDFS

| SMILES | pIC50 (human STING WT (R232)) | DSF [1] |
| --- | --- | --- |
| Cc1nc2nn(C(C)C)cc2cc1-n1nc(-c2cccc3nn(C[C@H](O)c4ccccc4)cc23)c(C(C)C)c1C [Example 18, (1R)-2-(4-{5-methyl-1-[6-methyl-2-(propan-2-yl)-2H-pyrazolo[3,4-b]pyridin-5-yl]-4-(propan-2-yl)-1H-pyrazol-3-yl}-2H-indazol-2-yl)-1-phenylethan-1-ol] | 7.84 | 28 K |
| Cc1c(C(C)C)c(-c2cccc3nn(C[C@H](O)c4ccccc4)cc23)nn1-c1cc2cn(C)nc2nc1C(C)O (stereo partly drawn) [Example 19, (1R)-2-(4-{1-[6-(1-hydroxyethyl)-2-methyl-2H-pyrazolo[3,4-b]pyridin-5-yl]-5-methyl-4-(propan-2-yl)-1H-pyrazol-3-yl}-2H-indazol-2-yl)-1-phenylethan-1-ol] | 7.79 | 29 K |
| CSc1nc2nn(C)cc2cc1-n1nc(-c2cccc3nn(C[C@H](O)c4ccccc4)cc23)c(C(C)C)c1C [Example 20, (1R)-2-(4-{5-methyl-1-[2-methyl-6-(methylsulfanyl)-2H-pyrazolo[3,4-b]pyridin-5-yl]-4-(propan-2-yl)-1H-pyrazol-3-yl}-2H-indazol-2-yl)-1-phenylethan-1-ol] | 7.76 | 27 K |
| Cc1nc2nn(CCCN3CCCC3=O)cc2cc1-n1nc(-c2cccc3nn(C[C@H](O)c4ccccc4)cc23)c(C(C)C)c1C [Example 21, 1-{3-[5-(3-{2-[(2R)-2-hydroxy-2-phenylethyl]-2H-indazol-4-yl}-5-methyl-4-(propan-2-yl)-1H-pyrazol-1-yl)-6-methyl-2H-pyrazolo[3,4-b]pyridin-2-yl]propyl}pyrrolidin-2-one] | 8.31 | 30 K |
| CC(C)c1nc2nn(C)cc2cc1-c1nc(-c2cccc3nn(C[S@@+]([O-])c4ccccc4)cc23)c(C2CC2)n1C [Example 22, 2-{[(S)-benzenesulfinyl]methyl}-4-{5-cyclopropyl-1-methyl-2-[2-methyl-6-(propan-2-yl)-2H-pyrazolo[3,4-b]pyridin-5-yl]-1H-imidazol-4-yl}-2H-indazole] | 7.70 | 33 K |
| Cc1c(C(C)C)c(-c2cccc3nn(C[C@H](O)c4ccccc4)cc23)nn1-c1cc2cn(C)nc2nc1OC(C)C [Example 23, (1R)-2-(4-{5-methyl-1-[2-methyl-6-(propan-2-yloxy)-2H-pyrazolo[3,4-b]pyridin-5-yl]-4-(propan-2-yl)-1H-pyrazol-3-yl}-2H-indazol-2-yl)-1-phenylethan-1-ol] | 7.73 | 25 K |

Second part, the compound after the results:

| pIC50 (human STING WT (R232)) | DSF [1] | SMILES |
| --- | --- | --- |
| 8.31 | 30 K | Cc1nc2nn(Cc3cnn(C)c3)cc2cc1-n1nc(-c2cccc3nn(C[C@H](O)c4ccccc4)cc23)c(C(C)C)c1C [Example 24, (1R)-2-[4-(5-methyl-1-{6-methyl-2-[(1-methyl-1H-pyrazol-4-yl)methyl]-2H-pyrazolo[3,4-b]pyridin-5-yl}-4-(propan-2-yl)-1H-pyrazol-3-yl)-2H-indazol-2-yl]-1-phenylethan-1-ol] |
| 7.74 | 30 K | Cc1ccc([C@@H](O)Cn2cc3c(-c4nc(-c5cc6cn(C)nc6nc5C(C)C)n(C)c4C4CC4)cccc3n2)cc1 [Example 25, (1R)-2-(4-{5-cyclopropyl-1-methyl-2-[2-methyl-6-(propan-2-yl)-2H-pyrazolo[3,4-b]pyridin-5-yl]-1H-imidazol-4-yl}-2H-indazol-2-yl)-1-(4-methylphenyl)ethan-1-ol] |
| 7.37 | 26 K | Cc1c(C(C)C)c(-c2cccc3nn(C[C@H](O)c4ccccc4)cc23)nn1-c1cc2cn(C)nc2nc1CN1CCOCC1 [Example 26, (1R)-2-[4-(5-methyl-1-{2-methyl-6-[(morpholin-4-yl)methyl]-2H-pyrazolo[3,4-b]pyridin-5-yl}-4-(propan-2-yl)-1H-pyrazol-3-yl)-2H-indazol-2-yl]-1-phenylethan-1-ol] |
| 7.84 | 25 K | Cc1nc2nn(C)cc2cc1-n1nc(-c2cccc3nn(C[C@H](OCF)c4ccccc4)cc23)c(C(C)C)c1C [Example 27, 4-(1-{2,6-dimethyl-2H-pyrazolo[3,4-b]pyridin-5-yl}-5-methyl-4-(propan-2-yl)-1H-pyrazol-3-yl)-2-[(2R)-2-(fluoromethoxy)-2-phenylethyl]-2H-indazole] |
| 8.08 | 31 K | Cn1c(-c2cc3cn(CCCN4CCCC4=O)nc3nc2C2CC2)nc(-c2cccc3nn(C[C@H](O)c4ccccc4)cc23)c1C1CC1 [Example 28, 1-{3-[6-cyclopropyl-5-(5-cyclopropyl-4-{2-[(2R)-2-hydroxy-2-phenylethyl]-2H-indazol-4-yl}-1-methyl-1H-imidazol-2-yl)-2H-pyrazolo[3,4-b]pyridin-2-yl]propyl}pyrrolidin-2-one] |
| 8.55 | 29 K | Cc1c(C2CC2)c(-c2cccc3nn(C[C@H](O)c4ccccc4)cc23)nn1-c1cc2cn(C)nc2nc1C1CC1 [Example 29, (1R)-2-[4-(4-cyclopropyl-1-{6-cyclopropyl-2-methyl-2H-pyrazolo[3,4-b]pyridin-5-yl}-5-methyl-1H-pyrazol-3-yl)-2H-indazol-2-yl]-1-phenylethan-1-ol] |
| 7.74 | 25 K | CCO[C@@H](Cn1cc2c(-c3nn(-c4cc5cn(C)nc5nc4C)c(C)c3C(C)C)cccc2n1)c1ccccc1 [Example 30, 4-(1-{2,6-dimethyl-2H-pyrazolo[3,4-b]pyridin-5-yl}-5-methyl-4-(propan-2-yl)-1H-pyrazol-3-yl)-2-[(2R)-2-ethoxy-2-phenylethyl]-2H-indazole] |
| 8.07 | 28 K | Cc1nc2nn(CCCO)cc2cc1-n1nc(-c2cccc3nn(C[C@H](O)c4ccccc4)cc23)c(C(C)C)c1C [Example 32, 3-[5-(3-{2-[(2R)-2-hydroxy-2-phenylethyl]-2H-indazol-4-yl}-5-methyl-4-(propan-2-yl)-1H-pyrazol-1-yl)-6-methyl-2H-pyrazolo[3,4-b]pyridin-2-yl]propan-1-ol] |
